Legend:
[1] = Glutathione selectivity: absorption/fluorescence spectrum with various amino acids in HEPES buffer; assay type: biochemical
Procedure: 10 μM of the compound prepared in Example 2 was treated to HEPES (4-(2-hydroxyethyl)piperazine-1-ethanesulfonic acid) buffer (10 mM, pH=7.4) containing 10% DMSO and 100 μM of each glutathione, cysteine, homocysteine, dithiothreitol, phenylalanine, histidine, glutamine, lysine, glutamate, glycine, serine, alanine, arginine, methionine, and tyrosine, followed by observation of fluorescence spectrum at 25° C. by using RF-5310/PC fluorescence spectrometer (Shimada, 1 cm quartz cell).
An experiment was performed by the same manner as described in Experimental Example 3 except that the fragment 1 or the fragment 2 was used instead of the compound prepared in Example 2. […] To disclose the reason in relation to the above, the 3-dimensional structure of each of the compound of Example 1, the compound of Example 2, and the fragment 1 or the fragment 2, was investigated along with band-gap.
10 μM of the compound prepared in Example 3 and 100 μM of each endogenous amino acid (alanine, arginine, cysteine, glutamate, glycine, glutathione, homocysteine, histidine, lysine, methionine, serine, and tyrosine) were added to HEPES (4-(2-hydroxyethyl)piperazine-1-ethanesulfonic acid) buffer (10 mM, pH=7.4) containing 10% dimethylsulfoxide (DMSO), followed by observation of absorption spectrum presented through UV-vis sepctra (Scinco 3000 spectrophotometer, 1 cm quartz cell) at 25° C.
(§1) The following experiment was performed by the same manner as described in Experimental Example <15-1> except that fluorescence spectrum was observed by using RF-5310/PC fluorescence spectrometer (Shimada, 1 cm quartz cell) instead of observing absorption spectrum via UV-vis sepctra (Scinco 3000 spectrophotometer, 1 cm quartz cell) (λex=730 nm, λem=736 nm, slit:10/10 nm).

[2] = Detection of biothiol: absorption and fluorescence spectrum with endogenous amino acids in HEPES buffer; assay type: biochemical; details: 10 μM compound; for absorption strength at 750 nm: HEPES pH 7.4, 10% DMSO, 25° C.; for fluorescence strength at 736 nm: λex=730 nm
Procedure: 10 μM of the compound prepared in Example 1 and 100 μM of each endogenous amino acid (glutathione, cysteine, homocysteine, dithiothreitol, phenylalanine, histidine, glutamine, lysine, glutamate, glycine, serine, alanine, arginine, methionine, tyrosine) were added to HEPES (4-(2-hydroxyethyl)piperazine-1-ethanesulfonic acid) buffer (10 mM, pH=7.4) containing 10% dimethylsulfoxide (DMSO), followed by observation of absorption spectrum presented through UV-vis sepctra (Scinco 3000 spectrophotometer, 1 cm quartz cell) at 25° C.
as §1, with “<1-1>” for “<15-1>”

[3] = system: HeLa cells; test: Detection of intracellular biothiol in HeLa cells, confocal laser scanning microscope; assay type: cell-based, human; details: 10 μM compound
Procedure: HeLa cells (human adenocarcinoma cells, Korea Cell Line Bank) were cultured in RPMI 1640 (Roswell Park Memorial Institute) supplemented with 10% heat-inactivated fetal bovine serum (FBS), 100 U/mL penicillin, and 100 U/mL streptomycin in a 37° C. 5% CO2 incubator. The cells were either treated or not treated with 1 mM of N-methylmaleimide (NMM) known as a thiol blocker for 20 minutes. 100 μM of each amino acid containing thiol group (R—SH) such as cysteine, homocysteine, and glutathione was added thereto. Then, the cells were seeded in 35-mm glass bottomed dishes at the density of 3×10^5 cells/dish in 1640 medium. 24 hours later, 10 μM of the compound prepared in Example 1 was added thereto, followed by culture at 37° C. for 20 minutes. The cells were washed with DPBS (Dulbecco's Phosphate Buffered Saline) twice to eliminate the remaining compound, followed by imaging with confocal laser scanning microscope (Fluoview 1200, Olympus, Japan). At this time, the emitting filter with the excitation wavelength of 635 nm and the band-path (BP) of 655˜755 nm was used.

[4] = Absorption and fluorescence spectrum according to the concentration of glutathione; assay type: biochemical; details: for absorption signal at 830 nm / fluorescence signal at 780 nm: 10 μM compound
Procedure: (§2) 10 μM of the compound prepared in Example 2 and glutathione were added to HEPES (4-(2-hydroxyethyl)piperazine-1-ethanesulfonic acid) buffer (10 mM, pH=7.4) containing 10% dimethylsulfoxide (DMSO) with raising slowly the concentration of glutathione from 0 to 50 μM, during which the changes of absorption spectrum were observed using UV-vis sepctra (Scinco 3000 spectrophotometer, 1 cm quartz cell) at 25° C.
as §1, with “<4-1>” for “<15-1>”
as §2, with “Example 3” for “Example 2”, “to 100” for “to 50”
as §1, with “<16-1>” for “<15-1>”

[5] = 100 μM amino acids containing thiol group (glutathione, cysteine, homocysteine, dithiothreitol)
[6] = 100 μM other amino acids not-containing thiol group
[7] = 10 μM compound, 100 μM other amino acids except glutathione
[8] = glutathione raised from 0 to 100 μM

CCCN1/C(=C/C=C2\CCCC(/C=C/C3=[N+](CCC)c4ccccc4C3(C)C)=C2N2CCNCC2)C(C)(C)c2ccccc21 [fragment 2, 2-((E)-2-((E)-3-((E)-2-(3,3-dimethyl-1-propylindolin-2-ylidene)ethylidene)-2-(piperazine-1-yl)cyclohex-1-enyl)binyl)-3,3-dimethyl-1-propyl-3H-indolium iodide]
changes in absorption or fluorescence spectrum (capacity of detecting glutathione) ([1]; same manner as Experimental Example 3, fragment instead of Example 2): no changes in absorption or fluorescence spectrum were detected

CCCN1/C(=C/C=C2\CCCC(/C=C/C3=[N+](CCC)c4ccccc4C3(C)C)=C2N2CCN(S(=O)(=O)c3ccc([N+](=O)[O-])cc3[N+](=O)[O-])CC2)C(C)(C)c2ccccc21.[I-] [Example 1, 2-((E)-2-((E)-3-((E)-2-(3,3-dimethyl-1-propylindolium-2-ylidene)ethylidene)-2-(4-(2,4-dinitrophenylsulfonyl)piperazine-1-yl)cyclohex-1-enyl)binyl)-3,3-dimethyl-1-propyl-3H-indolium iodide]
absorption strength at 750 nm [2, 5]: strong absorption strength | fluorescence strength at 736 nm [2, 5]: strong fluorescence strength | absorption strength at 750 nm [2, 6]: weak absorption strength | fluorescence strength at 736 nm [2, 6]: weak fluorescence strength | red fluorescence under confocal laser scanning microscope ([3]; HeLa cells pre-treated with NMM, 100 μM cysteine added): strong red fluorescence was observed | red fluorescence under confocal laser scanning microscope ([3]; HeLa cells pre-treated with NMM, 100 μM glutathione added): strong red fluorescence was observed | red fluorescence under confocal laser scanning microscope ([3]; HeLa cells pre-treated with NMM, 100 μM homocysteine added): strong red fluorescence was observed | red fluorescence under confocal laser scanning microscope ([3]; HeLa cells pre-treated with thiol blocker NMM 1 mM): red fluorescence was not observed | red fluorescence under confocal laser scanning microscope ([3]; HeLa cells, 20 minutes): strong red fluorescence was detected

CCCCN1C(=O)c2cccc3c(S(=O)(=O)N4CCN(C5=C(/C=C/C6=[N+](CCC)c7ccccc7C6(C)C)CCC/C5=C\C=C5\N(CCC)c6ccccc6C5(C)C)CC4)ccc(c23)C1=O.[I-] [Example 3, 2-((E)-2-((E)-2-(4-((2-butyl-1,3-dioxo-2,3-dihydro-1H-benzeneisoquinoline-6-yl)sulfonyl)piperazine-1-yl)-3-((E)-2-(3,3-dimethyl-1-propylindolin-2-ylidene)ethylidene)cyclohex-1-en-1-yl)binyl)-3,3-dimethyl-1-propyl-3H-indolium iodide]
fluorescence signal near 780 nm ([1]; 10 μM compound, 100 μM glutathione): strong fluorescence signal | absorption signal near 830 nm ([1]; 10 μM compound, 100 μM glutathione, HEPES pH 7.4, 10% DMSO, 25° C.): weak absorption signal | absorption signal at 830 nm [1, 7]: strong absorption signal | fluorescence signal at 780 nm [1, 7]: weak fluorescence signal | absorption signal at 830 nm ([4]; glutathione not added): strong absorption signal | fluorescence signal at 780 nm ([4]; glutathione not added): weak fluorescence signal | absorption signal at 830 nm [4, 8]: getting weaker | fluorescence signal at 780 nm [4, 8]: getting stronger | dependence of the reaction on glutathione concentration ([4]; conclusion from absorption and fluorescence spectra): dose-dependently
